Data set [1] is described as follows: Lyophilisation solubility assay (LYSA), kinetic solubility. The class given is physicochemical. Conditions: aqueous buffer; 0.05 M phosphate buffer (pH 6.5), from 10 mM DMSO stock after evaporation. An excerpt: The solubility of a substance can be broadly defined as the maximum amount of the substance that dissolves in a specified volume of solvent. However, it is important to understand that the solubility of a compound can vary drastically depending on the condition of the solvent (e.g. temperature and pH) and the physiochemical properties of the compound (e.g. ionisation and crystallinity). These critical factors need to be considered during solubility determination in order to generate high quality solubility data that will be useful in the progression of compounds through the discovery and development stages. The kinetic solubility of a compound is the maximum solubility of the fastest precipitating species of the compound; this is often measured using a stock solution of the compound dissolved in an organic solvent, typically dimethyl sulfoxide (DMSO), as the starting material. […] The precipitate formed, which is rarely determined during the assessment, could be any combination of various possible solid states of the compound. Given the level of supersaturation that could occur when an organic solvent is diluted in water, kinetic solubility values are typically higher than the corresponding thermodynamic (equilibrium) solubility values. Solubility assays in the early discovery process often determine kinetic solubility. The lyophilisation solubility assay (LYSA) is a high throughput kinetic solubility assay for the early drug discovery process.
Samples were prepared in duplicate from 10 mM DMSO stock solution. After evaporation of DMSO with a centrifugal vacuum evaporator, the compounds were solved in 0.05 M phosphate buffer (pH 6.5), stirred for one hour and shaken for two hours. After one night, the solutions were filtered using a microtiter filter plate. Then the filtrate and its 1/10 dilution were analyzed by HPLC-UV. […] The results were in μg/mL. […] It should be noted that metastable solid phases may form during the evaporation step, and the method might therefore produce higher solubility values than assays using the stable polymorph as the starting material.

Data set [2] can be described thus: Thermodynamic solubility assay (THESA), equilibrium solubility. The class given is physicochemical. Conditions: 22 °C, aqueous buffer, thermodynamic from solid; 50 mM phosphate buffer (pH 6.5), room temperature (22±2° C.). The method, then: The thermodynamic (equilibrium) solubility is the saturation solubility of a compound at the end of the dissolution process, where the dissolved compound is in equilibrium with the undissolved material in excess. The thermodynamic solubility is determined by dispensing a solid compound into a solvent. This is often deemed as the true solubility of the compound and is a critical piece of information in formulation development. The thermodynamic solubility assay (THESA) is a widely used tool for the measurement of equilibrium solubility for the later drug discovery process and is considered as a gold standard solubility assay.
Approximately 1-2 mg of each compound was added into 300 μL of 50 mM phosphate buffer (pH 6.5) at room temperature (22±2° C.). Each sample is placed in a microanalysis tube, which was sonicated for 1 h and shaken for 2 h. All suspensions were left overnight (about 16 h). On the next day, the samples were filtered into a V-bottom plate with a micronic filterplate to separate the solid material from the solution. Then, all solutions were diluted into 96 well V-bottom microplates and analyzed by UPLC-UV. The calibration line was established by UPLC using 5 different dilutions of the compound in a DMSO stock solution, made in micronic tubes (concentration approximately 1 mg/mL). Dilutions took place with DMSO. From this regression equation the solubility of the compound was determined. In cases where the drug was completely dissolved in the buffer, the value for equilibrium solubility was assumed to be higher than the value determined by UPLC and reported as such.

Data set [3] is described as follows: Dissolution test in fasted state simulated intestinal fluid (FaSSIF). Format: physicochemical. Conditions: FaSSIF pH 6.5, room temperature. How it is done:
0.420 g of NaOH (pellets), 3.954 g of NaH2PO4 (monohydrate) and 6.186 g of NaCl were dissolved in about 0.9 L of purified water. The pH was adjusted to 6.5 with either 1 N NaOH or 1 N HCl. The total volume of the mixture was made up to 1.0 L with purified water at room temperature.
To about 50 mL of blank FaSSIF buffer was added 0.2240 g of SIF Powder Original (Biorelevant.com Ltd, Product code: FFF03, UK), the mixture was stirred until powder was completely dissolved. The total volume of the mixture was made up to 100 mL with blank FaSSIF buffer at room temperature.
(§1) Approximately 1-2 mg of each compound was added in excess into […] of buffer at room temperature. Each sample is placed in a microanalysis glass tube, which was sonicated for 1 h and agitated for 2 h. All suspensions were left overnight (about 16 h). On the next day, all pH values were measured with a pH-meter and the samples were filtered into a V-bottom plate with a micronic filterplate to separate the solid material from the solution. Then, all solutions were diluted into 96 well V-bottom microplates and analyzed by UPLC-UV.
(§2) The calibration line was established by UPLC using 5 different dilutions of the compound in a DMSO stock solution, made in micronic tubes (concentration approximately 1 mg/mL). Dilutions took place with DMSO (in special circumstances, with acetonitrile, or 80% HCl 0.1 N/20% acetonitrile). From this regression equation the solubility of the compound was determined. In cases where the compound was completely dissolved in the buffer, the value for equilibrium solubility was assumed to be higher than the value determined by UPLC and reported as such.

Data set [4] is described as follows: Dissolution test in fed state simulated intestinal fluid (FeSSIF). Format: physicochemical. Conditions: FeSSIF pH 5, room temperature. How it is done: 4.040 g of NaOH (pellets), 8.650 g of glacial acetic acid and 11.874 g of NaCl were dissolved in about 0.9 L of purified water. The pH was adjusted to 5 with either 1 N NaOH or 1 N HCl. The total volume of the mixture was made up to 1.0 L with purified water at room temperature.
To about 50 mL of blank FeSSIF buffer was added 1.120 g of SIF Powder Original (Biorelevant.com Ltd, Product code: FFF03, UK), the mixture was stirred until powder was completely dissolved. The total volume of the mixture was made up to 100 mL with blank FeSSIF buffer at room temperature.
as §1, §2

The target of data set [5] is T1, human TLR7 (Homo sapiens, UniProt Q9NYK1).
T1 sequence (Q9NYK1 27-1049): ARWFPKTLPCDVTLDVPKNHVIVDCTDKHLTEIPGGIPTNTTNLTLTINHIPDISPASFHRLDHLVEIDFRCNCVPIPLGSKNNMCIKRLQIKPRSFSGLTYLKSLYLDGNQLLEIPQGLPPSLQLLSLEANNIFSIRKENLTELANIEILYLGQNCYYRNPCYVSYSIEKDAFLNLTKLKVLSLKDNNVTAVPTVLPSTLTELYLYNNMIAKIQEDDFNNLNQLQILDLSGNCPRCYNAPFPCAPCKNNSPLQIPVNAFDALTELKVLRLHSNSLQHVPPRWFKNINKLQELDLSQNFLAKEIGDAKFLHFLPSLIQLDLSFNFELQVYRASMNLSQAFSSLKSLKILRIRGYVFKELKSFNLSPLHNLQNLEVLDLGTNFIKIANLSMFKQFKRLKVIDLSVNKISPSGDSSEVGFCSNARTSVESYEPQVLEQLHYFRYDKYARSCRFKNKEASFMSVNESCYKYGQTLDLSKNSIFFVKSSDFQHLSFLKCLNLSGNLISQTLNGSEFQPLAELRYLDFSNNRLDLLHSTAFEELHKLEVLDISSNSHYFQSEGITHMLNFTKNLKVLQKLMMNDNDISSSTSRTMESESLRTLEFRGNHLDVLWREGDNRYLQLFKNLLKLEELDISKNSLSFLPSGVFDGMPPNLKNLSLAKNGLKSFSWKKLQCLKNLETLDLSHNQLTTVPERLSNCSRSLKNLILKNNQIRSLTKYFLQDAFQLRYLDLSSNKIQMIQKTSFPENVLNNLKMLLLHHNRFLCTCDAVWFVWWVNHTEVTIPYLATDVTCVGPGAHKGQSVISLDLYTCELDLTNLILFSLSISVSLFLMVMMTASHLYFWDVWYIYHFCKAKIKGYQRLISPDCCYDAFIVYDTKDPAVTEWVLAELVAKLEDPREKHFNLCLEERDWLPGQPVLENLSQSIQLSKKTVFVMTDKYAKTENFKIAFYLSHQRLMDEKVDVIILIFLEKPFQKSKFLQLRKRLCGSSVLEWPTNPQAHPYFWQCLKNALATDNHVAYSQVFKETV
Briefly: HEK293-Blue-hTLR7 cells assay (SEAP reporter, NF-κB activation).
Description: A stable HEK293-Blue-h TLR7 cell line was purchased from InvivoGen (Cat. #: hkb-htlr7, San Diego, California, USA). These cells were designed for studying the stimulation of human TLR7 by monitoring the activation of NF-κB. A SEAP (secreted embryonic alkaline phosphatase) reporter gene was placed under the control of the IFN-β minimal promoter fused to five NF-κB and AP-1-binding sites. The SEAP was induced by activating NF-κB and AP-1 via stimulating HEK-Blue hTLR7 cells with TLR7 ligands. Therefore the reporter expression was regulated by the NF-κB promoter upon stimulation of human TLR7 for 20 hrs. The cell culture supernatant SEAP reporter activity was determined using QUANTI-Blue™ kit (Cat. #: rep-qb1, Invivogen, San Diego, Ca, USA) at a wavelength of 640 nm, a detection medium that turns purple or blue in the presence of alkaline phosphatase.
HEK293-Blue-hTLR7 cells were incubated at a density of 250,000˜450,000 cells/mL in a volume of 180 μL in a 96-well plate in Dulbecco's Modified Eagle's medium (DMEM) containing 4.5 g/L glucose, 50 U/mL penicillin, 50 mg/mL streptomycin, 100 mg/mL Normocin, 2 mM L-glutamine, 10% (V/V) heat-inactivated fetal bovine serum for 24 hrs. Then the HEK293-Blue-hTLR7 cells were incubated with addition of 20 μL test compound in a serial dilution in the presence of final DMSO at 1% and perform incubation under 37° C. in a CO2 incubator for 20 hrs.

Structures are written as SMILES. Values after ≈ are worked out from the molar mass of the structure shown. Like-named read-outs stand apart in the source and are kept apart here.

Broadly, the kinetic solubility is solubility judged after dilution from a stock solution rather than from solid. What is called thermodynamic solubility is the concentration in solution at equilibrium with solid. The term EC50 denotes the concentration giving half of the maximal effect. For `CN(C)CCNc1ccc(Cn2c(=O)[nH]c3c(N)nc(P(C)(C)=O)nc32)cn1` [Example 1, 6-amino-9-[[6-[2-(dimethylamino)ethylamino]-3-pyridyl]methyl]-2-dimethylphosphoryl-7H-purin-8-one], in data set [1], the kinetic solubility was over 540 µg/mL. The thermodynamic solubility in data set [2] was found to be 929 µg/mL (≈ 2.3 mM). In data set [3], the “FaSSIF” value is 2527 µg/mL. The “FeSSIF” value in data set [4] was 3077 µg/mL. Further, the EC50 in data set [5] is 0.034 µM.
Consider `CN(C)CCOc1ccc(Cn2c(=O)[nH]c3c(N)nc(P(C)(C)=O)nc32)cn1` [Example 2, 6-amino-9-[[6-[2-(dimethylamino)ethoxy]-3-pyridyl]methyl]-2-dimethylphosphoryl-7H-purin-8-one], for which, in data set [1], the solubility (kinetic) is over 540 µg/mL. Also, the solubility (thermodynamic) in data set [2] is 2780 µg/mL (≈ 6.85 mM). Moreover, the “FaSSIF” value in data set [3] was 3519 µg/mL. Also, in data set [4], the “FeSSIF” value was 4801 µg/mL. The response in data set [5] was half-maximal at 0.019 µM (EC50).
As to `CC[P@@](C)(=O)c1nc(N)c2[nH]c(=O)n(Cc3ccc(N4CCN(C)CC4)nc3)c2n1` [Example 13-A, 6-amino-2-[(R)-ethyl(methyl)phosphoryl]-9-[[6-(4-methylpiperazin-1-yl)-3-pyridyl]methyl]-7H-purin-8-one], the solubility (kinetic) in data set [1] was over 530 µg/mL. For the same compound, in data set [2], the solubility (thermodynamic) came out at 2380 µg/mL (≈ 5.53 mM). For the same compound, the “FaSSIF” value in data set [3] was 2368 µg/mL. Moreover, the “FeSSIF” value in data set [4] was 4672 µg/mL.
Turning to `CC[P@@](C)(=O)c1nc(N)c2[nH]c(=O)n(Cc3ccc(NCCN(C)C)nc3)c2n1` [Example 15-A, 6-amino-9-[[6-[2-(dimethylamino)ethylamino]-3-pyridyl]methyl]-2-[(R)-ethyl(methyl)phosphoryl]-7H-purin-8-one], the kinetic solubility in data set [1] is over 560 µg/mL. The thermodynamic solubility in data set [2] turned out to be 4060 µg/mL (≈ 9.7 mM). The “FaSSIF” value in data set [3] was 3074 µg/mL. The “FeSSIF” value in data set [4] is 3987 µg/mL. This compound displayed a concentration giving a half-maximal response (EC50) in data set [5] of 0.018 µM.
For `CC[P@](C)(=O)c1nc(N)c2[nH]c(=O)n(Cc3ccc(NCCN(C)C)nc3)c2n1` [Example 15-B, 6-amino-9-[[6-[2-(dimethylamino)ethylamino]-3-pyridyl]methyl]-2-[(S)-ethyl(methyl)phosphoryl]-7H-purin-8-one] the same measures were over 560 µg/mL, over 4970 µg/mL, over 3733 µg/mL, over 4267 µg/mL and 0.012 µM.
On to `CC[P@@](C)(=O)c1nc(N)c2[nH]c(=O)n(Cc3ccc(OCCN(C)C)nc3)c2n1` [Example 16-A, 6-amino-9-[[6-[2-(dimethylamino)ethoxy]-3-pyridyl]methyl]-2-[(R)-ethyl(methyl)phosphoryl]-7H-purin-8-one], for which the kinetic solubility in data set [1] was over 560 µg/mL. For the same compound, the solubility (thermodynamic) in data set [2] was 1900 µg/mL (≈ 4.53 mM). Also, the “FaSSIF” value in data set [3] is 1799 µg/mL. For the same compound, the “FeSSIF” value in data set [4] was 2371 µg/mL.
`CC[P@](C)(=O)c1nc(N)c2[nH]c(=O)n(Cc3ccc(OCCN(C)C)nc3)c2n1` [Example 16-B, 6-amino-9-[[6-[2-(dimethylamino)ethoxy]-3-pyridyl]methyl]-2-[(S)-ethyl(methyl)phosphoryl]-7H-purin-8-one]: in data set [1], the kinetic solubility is over 560 µg/mL. Moreover, the thermodynamic solubility in data set [2] came out at 3450 µg/mL (≈ 8.23 mM). In data set [3], the “FaSSIF” value was 784 µg/mL. Further, the “FeSSIF” value in data set [4] was 1464 µg/mL.
Take `CCC[P@](C)(=O)c1nc(N)c2[nH]c(=O)n(Cc3ccc(NCCN(C)C)nc3)c2n1` [Example 18-A, 6-amino-9-[[6-[2-(dimethylamino)ethylamino]-3-pyridyl]methyl]-2-[(S)-methyl(propyl)phosphoryl]-7H-purin-8-one]: the solubility (kinetic) in data set [1] was over 580 µg/mL. Also, in data set [2], the thermodynamic solubility worked out at 3000 µg/mL (≈ 6.94 mM). For the same compound, the “FaSSIF” value in data set [3] was 3436 µg/mL. The “FeSSIF” value in data set [4] was 4536 µg/mL.
For `CCC[P@@](C)(=O)c1nc(N)c2[nH]c(=O)n(Cc3ccc(NCCN(C)C)nc3)c2n1` [Example 18-B, 6-amino-9-[[6-[2-(dimethylamino)ethylamino]-3-pyridyl]methyl]-2-[(R)-methyl(propyl)phosphoryl]-7H-purin-8-one] the same measures were over 580 µg/mL, 4020 µg/mL (≈ 9.3 mM), over 3767 µg/mL and over 5000 µg/mL.
On to `CCCS(=N)(=O)c1nc(N)c2[nH]c(=O)n(Cc3ccc(Cl)nc3)c2n1` (stereo not drawn) [RO14, reference compound], for which the solubility (kinetic) in data set [1] was 69 µg/mL. The thermodynamic solubility in data set [2] is 33 µg/mL (≈ 0.0864 mM). For the same compound, in data set [3], the “FaSSIF” value is 14 µg/mL. Moreover, the “FeSSIF” value in data set [4] was 21 µg/mL. In data set [5] (read-out: HEK293-Blue-h TLR7 (EC50 (μM)), HEK293-Blue-hTLR7 cells, 20 hrs incubation, SEAP reporter), the EC50 worked out at 0.017 µM.

The values above are taken from patent publication US20250215032A1, “PHOSPHORYLPURINONE COMPOUNDS FOR THE TREATMENT OF CANCER” (Hoffmann-La Roche Inc., priority 2022, published 2025).
